Results published in paper PMC10304178, “Influence of Polyvinylpyrrolidone Molecular Weight and Concentration on the Precipitation Inhibition of Supersaturated Solutions of Poorly Soluble Drugs” (Pharmaceutics, 2023).

Assays:
[1] = Supersaturation study by solvent-shift method (µDISS Profiler): induction time and slope of time–concentration profiles; format: physicochemical; details: for Influence of PVP concentration on tind and slope of the time–concentration profile / Influence of viscosity of the PVP solution on tind or slope of the time–concentration profile: multiple linear regression coefficient plot, 95% confidence interval
Source text: Time-concentration profiles of the drugs in a supersaturated solution in the absence and presence of PVP were obtained to study the influence of the polymer on the onset of the nucleation and precipitation rate of the drug from a supersaturated solution. Supersaturation of the drug was induced by the use of a method previously developed. Briefly, a […] ProfilerTM (Billerica, MA, USA) was used to obtain in situ UV spectra in the range from 200 to 720 nm. Probe tip lengths of 5, 10 or 20 mm were selected to obtain an absorbance in the range between 0.3 and 1. The vials were stirred using a crossbar magnet at ~100 rpm at a temperature of 37 °C. […] The UV wavelength range used to quantify the drug was 267-288 nm for albendazole, 304-360 nm for ketoconazole and 299-328 nm for tadalafil. […] Standard curves were prepared with six replicates by adding aliquots of 15 μL DMSO stock solution of the drug to the dissolution medium. The initial concentration of the drug was determined by using the highest concentration of the drug for which no instantaneous precipitation occurred. Precipitation was detected by a deviation from the linearity of the standard curve, a sharp shift in the baseline in the UV spectrum or through visual inspection of the solution. To induce supersaturation, 100 μL of a DMSO stock solution of the drug was transferred into glass vials containing 10 mL solutions of PVP K15, K30, K60 or […]. […] The drug concentration was monitored in situ by the second derivative of the UV absorbance. The second derivative was used to minimize UV interferences from the precipitate. The experiments were ended when the concentrations of the respective drugs reached their equilibrium solubility. The induction time of the time-concentration profiles was used as a surrogate for the onset of the nucleation of the respective drugs, and the slope of the time-concentration profiles was used as a surrogate for the precipitation rate of the respective drugs. The induction time (tind) and the slope of the time-concentration profile were determined using TA Instruments Trios software (New Castle, DE, USA). The induction time of the time-concentration profile in minutes was estimated using the onset time function via the tangent. The slope of the time-concentration profile in (μg/mL)/min was estimated using the slope function. Multiple linear regression analysis was conducted using Umetrics MODDE11 pro (Glostrup, Denmark) to delineate the influence of PVP molecular weight and concentration on the onset of nucleation and the precipitation rate of albendazole, tadalafil and ketoconazole. The tind and slope from the time-concentration profiles were used as the response values, whereas PVP concentration and the viscosity of the PVP solutions were used as the input predictors. It should be noted that the viscosity of the PVP solutions is used instead of the molecular weights of PVP, and therefore, the impact of the viscosity of solutions of PVP is the same as that of the molecular weight. The three levels for the concentration factor were 0.1, 0.5 and 1% (w/v), and the four levels for the viscosity factor were the viscosities of the solutions of PVP K15, K30, K60 and […]. […] The equilibrium solubility, viscosity of the PVP solutions, tind and slope of time-concentration profile during supersaturation of the drugs are given as the mean ± standard deviation (SD). […] Microsoft Excel (Redmond, WA, USA) was used for this analysis. The criteria for determining statistical significance in all tests were set at p < 0.05.

[2] = Equilibrium solubility of the drugs in PVP solutions (shake-flask solubility test); format: physicochemical
Protocol: An excess amount of the drug was added to 15 mL corning tubes containing either pure 0.1 M phosphate buffer (pH 7.4) or 0.1, 0.5 and 1% (w/v) solutions of PVP K15, K30, K60 or […], respectively. […] The saturated solution and the precipitate were separated by centrifugation for 10 min at 13,000 rpm in an Eppendorf Centrifuge 5810 R (Hamburg, Germany), followed by filtration intro ultra-performance liquid chromatography (UPLC) vials using a syringe filter (33 mm, 0.45 μm) PVDF membrane (2 mL filter sample prewet volume), acquired from Merck (Darmstadt, Germany). The tests were conducted in triplicate. The concentration of drug in the respective samples was quantified by reverse-phase chromatography using a Waters Acquity Classic UPLC system (Milford, MA, USA) equipped with an automated sample injector, a binary pump and a tunable UV detector. All samples were analyzed using a Waters Acquity UPLC BEH C18 column (130 Å, 1.7 μm, 2.1 × 50 mm) (Milford, MA, USA) at a column temperature of 50 °C for ketoconazole and tadalafil and 80 °C for albendazole. The samples were injected with a volume of s 6 μL and subsequently eluted at a flow rate of 0.8 mL/min. For albendazole and tadalafil, eluent A was a mixture of 90% (v/v) sodium sulfate (60 mM), di-ammonium hydrogen phosphate (5.5 mM) and phosphoric acid (34.5 mM) in Milli-Q water (pH 2.3) and 10% (v/v) acetonitrile. For ketoconazole, eluent A was a mixture of 90% (v/v) sodium sulfate (60 mM), di-ammonium hydrogen phosphate (5.5 mM) and phosphoric acid (34.5 mM) in Milli-Q water (pH 7.2) and 10% (v/v) acetonitrile. For tadalafil, albendazole and ketoconazole, eluent B was a mixture of 20% (v/v) Milli-Q water and 80% (v/v) acetonitrile. Albendazole was quantified in the samples using UV at a wavelength of 229 nm, while tadalafil was quantified at 284 nm and ketoconazole at 240 nm.

[3] = parameters: method as in PMID 29481859; details: absence of polymer; cited from earlier work
[4] = 1 mPa.s isoviscous solutions of PVP K15, K30, K60 and K120, increasing PVP molecular weight, p < 0.05
[5] = PVP K15, K30, K60 and K120, PVP concentration increased from 0.1 to 0.5% and again from 0.5 to 1% (w/v), ANOVA p < 0.05
[6] = PVP K15, K30, K60 and K120, concentration increased from 0.1 to 0.5% and again from 0.5 to 1% (w/v), p < 0.05
[7] = PVP K15, K30, K60 and K120 compared at the same concentration (0.1, 0.5, 1% w/v), p > 0.05
[8] = same concentrations (0.1, 0.5, 1% w/v) of PVP K15, K30, K60 and K120 (effect of molecular weight), p > 0.05
[9] = same concentration of repeating monomer units of PVP K15, K30, K60 and K120 (effect of molecular weight), p > 0.05
[10] = solution of 0.1% (w/v) PVP compared to the phosphate buffer pH 7.4, 37 °C, ANOVA
[11] = solutions of 0.5 and 1% (w/v) PVP, pH 7.4, 37 °C, ANOVA p < 0.05

Slope of the time–concentration profile (precipitation rate) [1, 4]	Influence of PVP concentration on tind and slope of the time–concentration profile [1]	Influence of viscosity of the PVP solution on tind or slope of the time–concentration profile [1]	Induction time (tind) [1, 8]	Equilibrium solubility [2, 9]	Slope of the time–concentration profile (precipitation rate) ([1]; 0.1% (w/v) PVP K15 compared with PVP K30, K60 and K120, p < 0.05)	Slope of the time–concentration profile (precipitation rate) ([1]; PVP K15, K30, K60 and K120, concentration increased from 0.1 to 0.5% (w/v), p < 0.05)	Induction time (tind) ([1]; PVP K15, concentration increased from 0.1 to 0.5% and again from 0.5 to 1% (w/v), p < 0.05)	Induction time (tind) ([1]; PVP K30, concentration increased from 0.1 to 0.5% (w/v), p > 0.05)	Induction time (tind) ([1]; PVP K30, concentration increased from 0.5 to 1% (w/v), p < 0.05)	Induction time (tind) ([1]; PVP K60 and K120, concentration increased from 0.1 to 0.5% and again from 0.5 to 1% (w/v), p > 0.05)	Equilibrium solubility ([2]; solutions of 0.1% and 0.5% (w/v) PVP compared to phosphate buffer, p < 0.05)	Structure (SMILES)	Induction time (tind) [1, 5]	Slope of the time–concentration profile (precipitation rate) [1, 6]	Slope of the time–concentration profile (precipitation rate) [1, 7]	Equilibrium solubility [2, 10]	Equilibrium solubility [2, 11]	Equilibrium solubility ([2]; increasing the concentration of PVP to 1% (w/v), p < 0.05)	Onset time of nucleation [3] [min]
statistically significant difference	significant influence	no significant influence	no statistically significant differences	No statistically significant increase	statistically significant difference	statistically significant difference	statistically significant increase	no statistically significant increase	statistically significant increase	no statistically significant differences	statistically significant increase	CC(=O)N1CCN(c2ccc(OCC3COC(Cn4ccnc4)(c4ccc(Cl)cc4Cl)O3)cc2)CC1 (stereo not shown) [ketoconazole]	–	–	–	–	–	further statistically significant increase	–
statistically significant difference	significant influence	no significant influence	no statistically significant differences	No statistically significant increase	–	–	–	–	–	–	–	CN1CC(=O)N2[C@H](c3ccc4c(c3)OCO4)c3[nH]c4ccccc4c3C[C@@H]2C1=O [tadalafil]	statistically significant increase	statistically significant difference	no statistically significant differences	no statistically significant increase	statistically significant increase	–	–
–	–	–	–	–	–	–	–	–	–	–	–	NS(=O)(=O)c1cc2c(cc1Cl)N=C(CSCc1ccccc1)NS2(=O)=O [benzthiazide]	–	–	–	–	–	–	4

Structure (SMILES)	Slope of the time–concentration profile (precipitation rate) [1, 4]	Influence of PVP concentration on tind and slope of the time–concentration profile [1]	Influence of viscosity of the PVP solution on tind or slope of the time–concentration profile [1]	Induction time (tind) [1, 8]	Equilibrium solubility [2, 9]	Slope of the time–concentration profile (precipitation rate) ([1]; 0.1% (w/v) PVP K15 compared with PVP K30, K60 and K120, p < 0.05)	Slope of the time–concentration profile (precipitation rate) ([1]; PVP K15, K30, K60 and K120, concentration increased from 0.1 to 0.5% (w/v), p < 0.05)	Induction time (tind) ([1]; PVP K15, concentration increased from 0.1 to 0.5% and again from 0.5 to 1% (w/v), p < 0.05)	Induction time (tind) ([1]; PVP K30, concentration increased from 0.1 to 0.5% (w/v), p > 0.05)	Induction time (tind) ([1]; PVP K30, concentration increased from 0.5 to 1% (w/v), p < 0.05)	Induction time (tind) ([1]; PVP K60 and K120, concentration increased from 0.1 to 0.5% and again from 0.5 to 1% (w/v), p > 0.05)	Equilibrium solubility ([2]; solutions of 0.1% and 0.5% (w/v) PVP compared to phosphate buffer, p < 0.05)	Induction time (tind) [1, 5]	Slope of the time–concentration profile (precipitation rate) [1, 6]	Slope of the time–concentration profile (precipitation rate) [1, 7]	Equilibrium solubility [2, 10]	Equilibrium solubility [2, 11]	Equilibrium solubility ([2]; increasing the concentration of PVP to 1% (w/v), p < 0.05)	Onset time of nucleation [3] [min]
CCCSc1ccc2nc(NC(=O)OC)[nH]c2c1 [albendazole, Albendazole]	statistically significant difference	significant influence	no significant influence	no statistically significant differences	No statistically significant increase	–	–	–	–	–	–	–	statistically significant increase	statistically significant difference	no statistically significant differences	no statistically significant increase	statistically significant increase	–	–
